From article PMC8962522, “Direct interaction of TrkA/CD44v3 is essential for NGF-promoted aggressiveness of breast cancer cells” (Journal of Experimental & Clinical Cancer Research : CR, 2022)

Tests used:
[1] = test system: TrkA/CD44v3 complex in SUM159-PT cells; assay: PLA TrkA/CD44v3 complex formation in SUM159-PT cells; type: cell-based; conditions: triple negative; NGF 100 ng/ml
Method: (§1) Cells (10,000 cells per well) were grown on acid-washed eight-well glass slides (Thermo Scientific) in the appropriate medium supplemented with 10% FBS for 24 h. After NGF treatment, paraformaldehyde (PAF)-fixed cells were incubated with 4% bovine serum albumin (BSA) or 5% FBS (for 1 h at 20 °C), followed by overnight incubation with primary antibodies (rabbit anti-TrkA or rabbit anti-IgG + mouse anti-pan-CD44; mouse anti-CD44v3; mouse anti-CD44v6; mouse anti-IgG2a; mouse anti-IgG2b; or mouse anti-IgG1). PLA was performed following the manufacturer’s instructions in the assay kit (Duolink PLA; Sigma–Aldrich). To obtain the correct representation of the PLA signal for each condition, 30 fields per condition were observed using a fluorescence microscope (Eclipse TiU; Nikon, Japan). The PLA signals (red dots) were automatically quantified using ImageJ software (with an in-house-developed plug-in). […]
Fig. 7 The TrkA/CD44v3 complex is formed in PR-negative breast cancer cells and tumors. TrkA/CD44v3 complex formation was measured in SUM159-PT (triple negative—i.e., ERα-, PR-, and Her2-) cells (A), T47-D (luminal A—i.e., ERα+, PR+, and Her2-) cells (B), BT-474 (luminal B—ERα+, PR+, and Her2+) cells (C), HCC-1954 (Her2-like—ERα-, PR-, and Her2+) cells (D), and 150 tumor patient samples obtained from US BioMax (HBre-Duc150Sur01) (E, F) using the proximity ligation assay (PLA). […]

[2] = test system: TrkA/CD44 complex in COS-7 cells transfected with TrkA and CD44s or CD44v6; assay: PLA TrkA/CD44s or TrkA/CD44v6 complex formation in COS-7 cells; type: cell-based, African green monkey (COS-7 cells); conditions: NGF 100 ng/ml, 0, 5 or 30 min
Method: as §1
Supplementary file 13046_2022_2314_MOESM3_ESM.pdf: Additional file 3: Supplementary Figure 1. […] The expression of all CD44 isoforms (A), CD44 variant 3 (B), CD44 variant 6 (C) and TrkA ([…]; D) was evaluated by RT–qPCR (normalized using PUM-1). No expression of CD44, CD44 variants [3 or 6] or TrkA was detected in COS-7 cells (A-D) compared with that in cells transfected with the expression plasmid carrying each protein. […]

Question: “NGF: recombinant human β-NGF (Alomone Labs, Israel)” was tested. Which “effect on TrkA/CD44v3 complex formation (PLA) in SUM159-PT cells” value [1] did it give?
Answer: NGF induction of CD44v3/TrkA complex formation was observed in SUM-159PT (TN) and HCC-1954 (Her2) cells

Question: What about the “effect on TrkA/CD44s or TrkA/CD44v6 complex formation (PLA) in COS-7 cells” value [2] of the same substance?
Answer: Neither wild-type COS-7 cells nor COS-7 cells transfected with TrkA and the CD44s or CD44v6 isoform showed the formation of the dynamic TrkA/CD44 complex in PLA
